What was measured:
Assay in all cases: MicroScale Thermophoresis
Menin = target: T1, Menin (Homo sapiens, UniProt O00255); format: binding
T1 sequence (O00255 1-610): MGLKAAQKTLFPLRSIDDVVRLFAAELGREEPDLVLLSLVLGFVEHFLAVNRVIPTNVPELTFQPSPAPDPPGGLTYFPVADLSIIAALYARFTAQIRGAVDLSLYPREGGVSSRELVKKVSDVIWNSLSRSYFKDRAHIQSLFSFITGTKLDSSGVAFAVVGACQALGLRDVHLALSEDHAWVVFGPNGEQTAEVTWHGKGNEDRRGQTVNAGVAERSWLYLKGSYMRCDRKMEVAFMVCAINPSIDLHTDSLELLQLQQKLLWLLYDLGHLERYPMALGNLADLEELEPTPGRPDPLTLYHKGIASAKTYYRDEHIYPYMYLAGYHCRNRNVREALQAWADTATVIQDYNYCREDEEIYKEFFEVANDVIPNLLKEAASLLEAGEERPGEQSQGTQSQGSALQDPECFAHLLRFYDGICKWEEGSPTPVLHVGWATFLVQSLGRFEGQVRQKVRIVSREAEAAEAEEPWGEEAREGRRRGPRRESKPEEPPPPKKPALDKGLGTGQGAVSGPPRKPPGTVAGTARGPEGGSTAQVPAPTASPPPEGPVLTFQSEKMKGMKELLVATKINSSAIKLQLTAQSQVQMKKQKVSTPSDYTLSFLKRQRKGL

[1] = target: Glutamate receptor 2 (GRIA2) (Homo sapiens, UniProt P42262); format: binding
[2] = target: Nicotinamide/nicotinic acid mononucleotide adenylyltransferase 1 (NMNAT1) (Homo sapiens, UniProt Q9HAN9); format: binding
[3] = target: Hematopoietic prostaglandin D synthase (HPGDS) (Homo sapiens, UniProt O60760); format: binding
[4] = target: T2, Fatty acid-binding protein 4 (FABP4) (Homo sapiens, UniProt P15090)
T2 sequence (P15090 2-132): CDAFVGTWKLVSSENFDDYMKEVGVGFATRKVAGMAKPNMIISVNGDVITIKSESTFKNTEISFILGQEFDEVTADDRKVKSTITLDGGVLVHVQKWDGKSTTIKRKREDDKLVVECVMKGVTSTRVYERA

Chain of Nicotinamide/nicotinic acid mononucleotide adenylyltransferase 1 (NMNAT1) (Q9HAN9 whole entry): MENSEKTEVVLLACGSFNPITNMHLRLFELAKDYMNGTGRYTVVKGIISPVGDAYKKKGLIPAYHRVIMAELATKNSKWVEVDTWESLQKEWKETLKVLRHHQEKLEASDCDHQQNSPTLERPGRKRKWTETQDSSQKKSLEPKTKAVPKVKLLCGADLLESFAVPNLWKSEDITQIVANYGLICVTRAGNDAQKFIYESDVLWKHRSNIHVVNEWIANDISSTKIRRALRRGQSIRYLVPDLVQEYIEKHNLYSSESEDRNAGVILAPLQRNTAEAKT
Chain of Hematopoietic prostaglandin D synthase (HPGDS) (O60760 whole entry): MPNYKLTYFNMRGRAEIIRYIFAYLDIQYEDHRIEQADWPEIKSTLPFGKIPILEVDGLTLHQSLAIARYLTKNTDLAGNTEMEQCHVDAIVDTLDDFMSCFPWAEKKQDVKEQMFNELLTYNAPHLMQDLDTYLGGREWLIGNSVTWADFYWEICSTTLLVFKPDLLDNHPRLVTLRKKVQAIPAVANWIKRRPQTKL
Chain of Glutamate receptor 2 (GRIA2) (P42262 25-543 limits assumed): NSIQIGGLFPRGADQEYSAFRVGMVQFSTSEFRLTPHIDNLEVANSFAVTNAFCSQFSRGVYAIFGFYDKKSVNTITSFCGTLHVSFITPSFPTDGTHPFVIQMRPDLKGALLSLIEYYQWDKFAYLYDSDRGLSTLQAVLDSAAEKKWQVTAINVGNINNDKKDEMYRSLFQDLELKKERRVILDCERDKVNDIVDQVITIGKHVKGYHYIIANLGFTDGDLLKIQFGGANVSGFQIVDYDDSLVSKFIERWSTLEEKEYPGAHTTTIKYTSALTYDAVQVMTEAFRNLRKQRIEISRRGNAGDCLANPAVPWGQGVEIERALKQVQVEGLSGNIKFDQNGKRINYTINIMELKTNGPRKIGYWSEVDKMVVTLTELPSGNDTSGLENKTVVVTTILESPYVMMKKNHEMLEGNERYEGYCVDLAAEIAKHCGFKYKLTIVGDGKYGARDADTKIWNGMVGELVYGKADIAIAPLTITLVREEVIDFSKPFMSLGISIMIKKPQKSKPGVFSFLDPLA

Kd (Menin): > 500 µM
Kd [1]: > 500 µM
Kd [2]: > 500 µM
Kd [3]: 30.9 ± 4.54 µM
Kd [4]: > 500 µM
SMILES: C[S+]([O-])c1ccc(-c2nc(-c3ccncc3)c(-c3ccc(F)cc3)[nH]2)cc1 (centres unmarked) [SB203580]

Source: doi:10.1101/2020.07.24.219071v1 (biorxiv, 2020)
